The values that follow come from patent US8063071B2 (GlaxoSmithKline, LLC, priority 2007, dated 2011).

Assay [1] deals with T1, Recombinant human IKKβ (residues 1-737) (Homo sapiens, UniProt O14920).
T1 construct: Recombinant human IKKβ (residues 1-737); GST (C); made in house
T1 sequence (O14920 1-737): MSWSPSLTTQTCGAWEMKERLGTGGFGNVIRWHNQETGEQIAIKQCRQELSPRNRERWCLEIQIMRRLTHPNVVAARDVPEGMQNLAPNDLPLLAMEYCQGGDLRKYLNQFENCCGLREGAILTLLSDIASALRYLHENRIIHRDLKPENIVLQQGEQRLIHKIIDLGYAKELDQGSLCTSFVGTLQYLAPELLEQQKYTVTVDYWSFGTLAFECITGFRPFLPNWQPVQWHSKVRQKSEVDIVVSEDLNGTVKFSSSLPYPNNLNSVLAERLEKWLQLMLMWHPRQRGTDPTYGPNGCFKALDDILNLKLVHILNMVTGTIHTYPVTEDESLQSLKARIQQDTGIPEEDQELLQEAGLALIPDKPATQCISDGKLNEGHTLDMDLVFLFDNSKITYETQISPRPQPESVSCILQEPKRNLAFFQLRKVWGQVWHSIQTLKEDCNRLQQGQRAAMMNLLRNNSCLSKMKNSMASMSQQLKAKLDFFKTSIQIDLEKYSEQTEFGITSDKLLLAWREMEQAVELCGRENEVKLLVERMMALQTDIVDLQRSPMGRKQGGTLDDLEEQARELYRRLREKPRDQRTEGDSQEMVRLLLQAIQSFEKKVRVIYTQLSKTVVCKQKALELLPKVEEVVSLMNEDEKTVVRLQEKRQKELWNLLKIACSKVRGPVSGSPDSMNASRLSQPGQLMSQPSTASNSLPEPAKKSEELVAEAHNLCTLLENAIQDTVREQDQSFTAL
The assay is described as follows: IKK2 assay (TR-FRET). The format is biochemical. The note with it: ATP 1 μM final, read-out: pIC50 against IKK2 (converted). The method, boiled down:
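Baculovirus-expressed C-terminal GST-tagged IKKβ (0.5-5 nM final) in HEPES pH 7.4, MgCl2, CHAPS, DTT, BSA with 1.7% DMSO; 25 nM GST-IB substrate and 1 μM ATP, 15 min at room temperature. EDTA stop; phospho-Ser32/36 detected by Eu-antibody/APC-anti-GST TR-FRET, 665/620 nm ratio.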

Assay [2] has as its system human monocyte stimulated cytokine production (TNF-α). The assay is described as follows: Monocyte assay (LPS-stimulated TNF-α production). The note with it: for inhibition at 0.3 µM: read-out: inhibition at 300 nM in the monocyte assay; for IC50: 24 h, 200 ng/mL LPS, TNF-α by ELISA. The format is cell-based. The method, boiled down:
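Human CD14+ monocytes were purified from blood and plated at 1×10^6 cells/mL in RPMI 1640 with 10% FBS. Compound was added 30 min before stimulation with 200 ng/mL LPS (0.1% DMSO final), followed by 24 hrs at 37 C. Supernatant TNF-α was measured by ELISA, and viability by trypan blue exclusion.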
In general terms: ELISA stands for enzyme-linked immunosorbent assay.

Where a name gives a salt, the structure may show the parent alone.

As usually defined, the inhibition is the percentage by which the read-out fell short of the control. For `CCCCNCc1ccc(-c2cc(C(N)=O)c3[nH]cc(C4CCN(S(=O)(=O)CC)CC4)c3c2)s1` [Example 187, 5-{5-[(butylamino)methyl]-2-thienyl}-3-[1-(ethylsulfonyl)-4-piperidinyl]-1H-indole-7-carboxamide], the IC50 in assay [1] was at most 10 µM. In addition, the inhibition at 0.3 µM in assay [2] was in the range of 0 to 60%.
With `CCS(=O)(=O)N1CCC(c2c[nH]c3c(C(N)=O)cc(-c4ccc(CNCCOC)s4)cc23)CC1` [Example 188, 3-[1-(ethylsulfonyl)-4-piperidinyl]-5-[5-({[2-(methyloxy)ethyl]amino}methyl)-2-thienyl]-1H-indole-7-carboxamide], the IC50 in assay [1] is at most 10 µM. For the same molecule, the inhibition at 0.3 µM in assay [2] lay in the range of 0 to 60%.
In the case of `CCS(=O)(=O)N1CCC(c2c[nH]c3c(C(N)=O)cc(-c4ccc(CNC5CCCC5)s4)cc23)CC1` [Example 189, 5-{5-[(cyclopentylamino)methyl]-2-thienyl}-3-[1-(ethylsulfonyl)-4-piperidinyl]-1H-indole-7-carboxamide], the IC50 in assay [1] is at most 10 µM. For the same molecule, the inhibition at 0.3 µM in assay [2] fell in the range of 0 to 60%.
On the same counts, the results for `CCS(=O)(=O)N1CCC(c2c[nH]c3c(C(N)=O)cc(-c4ccc(CNCCC(C)C)s4)cc23)CC1` [Example 190, 3-[1-(ethylsulfonyl)-4-piperidinyl]-5-(5-{[(3-methylbutyl)amino]methyl}-2-thienyl)-1H-indole-7-carboxamide] are at most 10 µM and 0 to 60%.
Turning to `CCS(=O)(=O)N1CCC(c2c[nH]c3c(C(N)=O)cc(-c4cncc(CNC(C)C)c4)cc23)CC1` [Example 191, 3-[1-(ethylsulfonyl)-4-piperidinyl]-5-(5-{[(1-methylethyl)amino]methyl}-3-pyridinyl)-1H-indole-7-carboxamide], the IC50 in assay [1] is at most 10 µM; in assay [2] it was at most 1.5 µM.
On the same counts, the results for `CCC(CC)CNCc1ccc(-c2cc(C(N)=O)c3[nH]cc(C4CCN(S(=O)(=O)CC)CC4)c3c2)s1` [Example 192, 5-(5-{[(2-ethylbutyl)amino]methyl}-2-thienyl)-3-[1-(ethylsulfonyl)-4-piperidinyl]-1H-indole-7-carboxamide] are at most 10 µM and over 1 µM.
For `CCOCCCNCc1ccc(-c2cc(C(N)=O)c3[nH]cc(C4CCN(S(=O)(=O)CC)CC4)c3c2)s1` [Example 193, 5-[5-({[3-(ethyloxy)propyl]amino}methyl)-2-thienyl]-3-[1-(ethylsulfonyl)-4-piperidinyl]-1H-indole-7-carboxamide], in that order: at most 10 µM and over 1 µM.
As to `CCS(=O)(=O)N1CCC(c2c[nH]c3c(C(N)=O)cc(-c4ccc(CNCCCOC)s4)cc23)CC1` [Example 194, 3-[1-(ethylsulfonyl)-4-piperidinyl]-5-[5-({[3-(methyloxy)propyl]amino}methyl)-2-thienyl]-1H-indole-7-carboxamide], the IC50 in assay [1] was at most 10 µM; in assay [2], over 1 µM.
With `CCS(=O)(=O)N1CCC(c2c[nH]c3c(C(N)=O)cc(-c4ccc(CNCC5CCCCC5)s4)cc23)CC1` [Example 195, 5-(5-{[(cyclohexylmethyl)amino]methyl}-2-thienyl)-3-[1-(ethylsulfonyl)-4-piperidinyl]-1H-indole-7-carboxamide], the IC50 in assay [1] was at most 10 µM. Moreover, the inhibition at 0.3 µM in assay [2] is 0 to 60%.
With `CCS(=O)(=O)N1CCC(c2c[nH]c3c(C(N)=O)cc(-c4ccc(CNCCCOC(C)C)s4)cc23)CC1` [Example 196, 3-[1-(ethylsulfonyl)-4-piperidinyl]-5-{5-[({3-[(1-methylethyl)oxy]propyl}amino)methyl]-2-thienyl}-1H-indole-7-carboxamide], the IC50 in assay [1] is at most 10 µM; in assay [2], over 1 µM.
On the same counts, the results for `CCOCCNCc1ccc(-c2cc(C(N)=O)c3[nH]cc(C4CCN(S(=O)(=O)CC)CC4)c3c2)s1` [Example 197, 5-[5-({[2-(ethyloxy)ethyl]amino}methyl)-2-thienyl]-3-[1-(ethylsulfonyl)-4-piperidinyl]-1H-indole-7-carboxamide] are at most 10 µM and over 1 µM.
For `CCS(=O)(=O)N1CCC(c2c[nH]c3c(C(N)=O)cc(-c4ccc(CN[C@@H](C)C(C)(C)C)s4)cc23)CC1` [Example 200, 3-[1-(ethylsulfonyl)-4-piperidinyl]-5-[5-({[(1S)-1,2,2-trimethylpropyl]amino}methyl)-2-thienyl]-1H-indole-7-carboxamide], in that order: at most 10 µM and over 1 µM.
As to `CCCCCCNCc1ccc(-c2cc(C(N)=O)c3[nH]cc(C4CCN(S(=O)(=O)CC)CC4)c3c2)s1` [Example 201, 3-[1-(ethylsulfonyl)-4-piperidinyl]-5-{5-[(hexylamino)methyl]-2-thienyl}-1H-indole-7-carboxamide], the figures for the IC50 in assay [1] and in assay [2] were at most 10 µM and over 1 µM, respectively.
For `CCS(=O)(=O)N1CCC(c2c[nH]c3c(C(N)=O)cc(-c4ccnc(N(C)C)c4)cc23)CC1` [Example 202, 5-[2-(dimethylamino)-4-pyridinyl]-3-[1-(ethylsulfonyl)-4-piperidinyl]-1H-indole-7-carboxamide trifluoroacetate], in that order: at most 10 µM and over 1 µM.
On the same counts, the results for `CCS(=O)(=O)N1CCC(c2c[nH]c3c(C(N)=O)cc(-c4ccnc(N5CCCC5)c4)cc23)CC1` [Example 203, trifluoroacetate] are at most 10 µM and over 1 µM.
On the same counts, the results for `CCS(=O)(=O)N1CCC(c2c[nH]c3c(C(N)=O)cc(-c4ccnc(N5CCOCC5)c4)cc23)CC1` [Example 204, 3-[1-(ethylsulfonyl)-4-piperidinyl]-5-[2-(4-morpholinyl)-4-pyridinyl]-1H-indole-7-carboxamide trifluoroacetate] are at most 10 µM and over 1 µM.
With `CCS(=O)(=O)N1CCC(c2c[nH]c3c(C(N)=O)cc(-c4ccnc(NCC(C)C)c4)cc23)CC1` [Example 205, 3-[1-(ethylsulfonyl)-4-piperidinyl]-5-{2-[(2-methylpropyl)amino]-4-pyridinyl}-1H-indole-7-carboxamide trifluoroacetate], the IC50 in assay [1] is at most 10 µM; in assay [2], over 1 µM.
With `CCS(=O)(=O)N1CCC(c2c[nH]c3c(C(N)=O)cc(-c4ccnc(NCC(C)(C)C)c4)cc23)CC1` [Example 206, 5-{2-[(2,2-dimethylpropyl)amino]-4-pyridinyl}-3-[1-(ethylsulfonyl)-4-piperidinyl]-1H-indole-7-carboxamide trifluoroacetate], the figures for the IC50 in assay [1] and in assay [2] were at most 10 µM and over 1 µM, respectively.
On the same counts, the results for `CCCNc1cc(-c2cc(C(N)=O)c3[nH]cc(C4CCN(S(=O)(=O)CC)CC4)c3c2)ccn1` [Example 207, 3-[1-(ethylsulfonyl)-4-piperidinyl]-5-[2-(propylamino)-4-pyridinyl]-1H-indole-7-carboxamide trifluoroacetate] are at most 10 µM and over 1 µM.
As for `CCS(=O)(=O)N1CCC(c2c[nH]c3c(C(N)=O)cc(-c4cc(CNC)cs4)cc23)CC1` [Example 208, 3-[1-(ethylsulfonyl)-4-piperidinyl]-5-{4-[(methylamino)methyl]-2-thienyl}-1H-indole-7-carboxamide trifluoroacetate], the IC50 was at most 10 µM in assay [1] and at most 1.5 µM in assay [2].
On the same counts, the results for `CCS(=O)(=O)N1CCC(c2c[nH]c3c(C(N)=O)cc(-c4cc(CN5CCCC5)cs4)cc23)CC1` [Example 209, 3-[1-(ethylsulfonyl)-4-piperidinyl]-5-[4-(1-pyrrolidinylmethyl)-2-thienyl]-1H-indole-7-carboxamide trifluoroacetate] are at most 10 µM and at most 1.5 µM.
For `CCS(=O)(=O)N1CCC(c2c[nH]c3c(C(N)=O)cc(-c4cc(CNCC(C)C)cs4)cc23)CC1` [Example 210, 3-[1-(ethylsulfonyl)-4-piperidinyl]-5-(4-{[(2-methylpropyl)amino]methyl}-2-thienyl)-1H-indole-7-carboxamide trifluoroacetate], in that order: at most 10 µM and at most 1.5 µM.
On the same counts, the results for `CCS(=O)(=O)N1CCC(c2c[nH]c3c(C(N)=O)cc(-c4cc(CN(C)C)cs4)cc23)CC1` [Example 211, 5-{4-[(dimethylamino)methyl]-2-thienyl}-3-[1-(ethylsulfonyl)-4-piperidinyl]-1H-indole-7-carboxamide trifluoroacetate] are at most 10 µM and at most 1.5 µM.
